Measured values published in EP0063238A1, “An efficiency-improving agent for feed and a preventive and treating agent for coccidiosis” (KAKEN PHARMACEUTICAL CO., LTD., priority 1981, dated 1982).

Legend:
[1] = Feed efficiency test on domestic fowls; assay type: in vivo; settings: 70 days; for The average increase in the body weight during the test period / The average ingested amount of feed during the test period: chickens; for The rate of feed requirement: ingested feed / body weight increase; for The improved ratio of the rate of feed requirement: versus no addition
Description: Feed efficiency test on domestic fowls
Domestic fowls tested: species used exclusively for broiler (Aber Acres species) Basal feed:
Method: • Fifty newborn chickens were divided into 5 groups of 10 each in such a way that the average body weight is the same in each group. Premixes of 5057A and 5057B were added to the foregoing basal feed so that the contents of 5057A and 5057B are .40 ppm and 80 ppm, respectively. This feed was administered to the animals over the period of 70 days, and the body weight and the ingested amount of the feed were measured.

[2] = Feed efficiency test on swine; assay type: in vivo, swine (landrace); settings: for The rate of feed requirement / The average increase in the body weight during the test period / The average ingested amount of feed during the test period / The improved ratio of the rate of feed requirement: 12 weeks; for The average increase in the body weight during the test period / The average ingested amount of feed during the test period: young pigs; for The improved ratio of the rate of feed requirement: versus no addition; for The total number of days of diarrheal stool in each group / The total number of days during the test period in each group: 6 pigs, period of 4 weeks
Description: Feed efficiency test on swine
Method: • Thirty young pigs were divided into 5 groups of 6 each in such a way that the average body weight is the same in each group. To the basal feed were added 0, 25, and 50 ppm each of 5057A and 5057B. The resulting basal feeds were administered over the period of 12 weeks and the body weight and the ingested amount of the feeds were measured. The total number of days that the pigs suffered from diarrhea during the period of 4 weeks was counted.

[3] = Propionic acid/acetic acid ratio in gastric juice from the rumen of the oxen tested; assay type: in vivo, Cattle (Holstein); settings: for The propionic acid concentration/The acetic acid concentration (the average value): rumen gastric juice; for ratio between propionic acid/acetic acid in the gastric juice in the rumen: as compared with the case of no addition
Description: (§1) Method: • Twenty five castrated Holstein oxen 9 months of age were divided into 5 groups of 5 each in such a way that the average body weight is almost the same in each group. Concentrated basal feeds to which 0, 10, and 20 ppm each of 5057A and 5057B had been added were each administered over the period of 240 days. As a crude feed, 1 kg per animal of straw of rice plants were administered.
The administration of the feeds to which the present substances had been added improved the utilization rate of the concentrated feed by 10 - 17% and the increased amount of the body weight by 3 - 8%. The gastric juice from the rumen of the oxen tested was collected and measured for the concentrations of acetic and propionic acids, thus the ratio between them being calculated.

Eimeria tenellum = test: Preventive and treating activity against coccidiosis in a domestic fowl; assay type: in vivo; settings: for Relation rate of the increase in the body weight: noninfection control = 100; for OPG: number of oocysts in 1 g of stool, 7 days after the inoculation; for Death rate: white leghorn chickens inoculated p.o. with oocysts; for preventive and treating activity against coccidiosis: conclusion in text from Table 5
Description: The preventive and treating activity against coccidiosis in a domestic fowl Domestic fowls tested: white leghorns Basal feed:
Method: • Fifty male white leghorn chickensl4 days of age were divided into 5 groups of 10 each. To the basal feed were added 50 and 100 ppm each of 5057A and 5057B. Infection with coccidiosis was done by inoculating […] per chicken of spore-forming oocysts of Eimeria tenellum directly p.o. into the crop of the chickens.
Groupsl - 4 were reared with the feeds containing predetermined concentrations of the 5057 substances, starting from 1 day before the inoculation with oocysts. Group 5 is an infection control that was inoculated with oocysts and reared with the basal feed containing no agents tested and Group 6 is a noninfection control. After 7 days after the inoculation with oocysts, the number of oocysts (OPG) in 1 g of stool was counted.

Acute toxicity test = settings: mouse, in vivo, mice
Description: An acute toxicity test was carried out with mice. As a result, the LD50 value of the 5057A and 5057B substances is 50 mg/kg i.p. and 50 mg/kg or more p.o. [drawing 14] [drawing 15]

[4] = Feed efficiency test on a ruminant; assay type: in vivo, Cattle (Holstein); settings: 240 days; for The average increase in the body weight during the test period: castrated Holstein oxen; for The improved ratio of the rate of concentrated feed requirement: versus no addition
Description: Feed efficiency test on a ruminant Cattle tested: Holstein
Basal feed: • Concentrated feed: [formula]
as §1

[5] = 10 ppm, 1 day after the administration
[6] = 10 ppm, 21 days after the administration
[7] = 10 ppm, 56 days after the administration
[8] = 20 ppm, 1 day after the administration
[9] = 20 ppm, 21 days after the administration
[10] = 20 ppm, 56 days after the administration

## CCC(C(=O)C(C)C(O)C(C)C1OC(O)(C(C)C(=O)O)C(C)CC1C)C1OC(C)(C2(O)OC(CC)(C(O)CC)CC2C)CC1C (stereo not drawn) [5057B]
[1]; 40 ppm in feed
  The average increase in the body weight during the test period: 2.67 kg
  The average ingested amount of feed during the test period: 5.74 kg
  The rate of feed requirement: 2.150
  The improved ratio of the rate of feed requirement: 6.6%
[1]; 80 ppm in feed
  The average increase in the body weight during the test period: 2.62 kg
  The average ingested amount of feed during the test period: 5.67 kg
  The rate of feed requirement: 2.164
  The improved ratio of the rate of feed requirement: 6.0%
[2]; 25 ppm in feed
  The rate of feed requirement: 2.348
  The average increase in the body weight during the test period: 47.62 kg
  The average ingested amount of feed during the test period: 111.8 kg
  The improved ratio of the rate of feed requirement: 4.6%
  The total number of days of diarrheal stool in each group / The total number of days during the test period in each group: 18/168
[2]; 50 ppm in feed
  The rate of feed requirement: 2.263
  The average increase in the body weight during the test period: 51.26 kg
  The average ingested amount of feed during the test period: 116.0 kg
  The improved ratio of the rate of feed requirement: 8.0%
  The total number of days of diarrheal stool in each group / The total number of days during the test period in each group: 6/168
[3]; [5]
  The propionic acid concentration/The acetic acid concentration (the average value): 0.79
[3]; [6]
  The propionic acid concentration/The acetic acid concentration (the average value): 0.76
[3]; [7]
  The propionic acid concentration/The acetic acid concentration (the average value): 0.77
[3]; [8]
  The propionic acid concentration/The acetic acid concentration (the average value): 0.83
[3]; [9]
  The propionic acid concentration/The acetic acid concentration (the average value): 1.00
[3]; [10]
  The propionic acid concentration/The acetic acid concentration (the average value): 0.93
[3]
  ratio between propionic acid/acetic acid in the gastric juice in the rumen: increases
Eimeria tenellum; 50 ppm in feed
  Relation rate of the increase in the body weight: 106%
  OPG: 0 x 10^4
  Death rate: 0%
Eimeria tenellum; 100 ppm in feed
  Relation rate of the increase in the body weight: 106%
  OPG: 0 x 10^4
  Death rate: 0%
Eimeria tenellum
  preventive and treating activity against coccidiosis: have a preventive and treating activity against coccidiosis
Acute toxicity test; ip
  LD50: 50 mg/kg
Acute toxicity test; po
  LD50: ≥ 50 mg/kg
[4]; 10 ppm in concentrated feed
  The average ingested amount of concentrated feed during the test period: 2406 kg
  The rate of concentrated feed requirement: 8.813
  The average increase in the body weight during the test period: 273 kg
  The improved ratio of the rate of concentrated feed requirement: 11.1%
[4]; 20 ppm in concentrated feed
  The average ingested amount of concentrated feed during the test period: 2354 kg
  The rate of concentrated feed requirement: 8.289
  The average increase in the body weight during the test period: 284 kg
  The improved ratio of the rate of concentrated feed requirement: 16.4%

## CCC(C(=O)C(C)C(O)C(C)C1OC(O)(C(C)C(=O)O)C(C)CC1C)C1OC(C)(C2(O)OC(CC)(C(C)O)CC2C)CC1C (stereo not drawn) [5057A]
[1]; 40 ppm in feed
  The average increase in the body weight during the test period: 2.54 kg
  The average ingested amount of feed during the test period: 5.59 kg
  The rate of feed requirement: 2.201
  The improved ratio of the rate of feed requirement: 4.3%
[1]; 80 ppm in feed
  The average increase in the body weight during the test period: 2.55 kg
  The average ingested amount of feed during the test period: 5.63 kg
  The rate of feed requirement: 2.218
  The improved ratio of the rate of feed requirement: 4.0%
[2]; 25 ppm in feed
  The rate of feed requirement: 2.353
  The average increase in the body weight during the test period: 45.35 kg
  The average ingested amount of feed during the test period: 106.7 kg
  The improved ratio of the rate of feed requirement: 4.3%
  The total number of days of diarrheal stool in each group / The total number of days during the test period in each group: 21/168
[2]; 50 ppm in feed
  The rate of feed requirement: 2.287
  The average increase in the body weight during the test period: 50.93 kg
  The average ingested amount of feed during the test period: 116.5 kg
  The improved ratio of the rate of feed requirement: 7.0%
  The total number of days of diarrheal stool in each group / The total number of days during the test period in each group: 11/168
[3]; [5]
  The propionic acid concentration/The acetic acid concentration (the average value): 0.80
[3]; [6]
  The propionic acid concentration/The acetic acid concentration (the average value): 0.73
[3]; [7]
  The propionic acid concentration/The acetic acid concentration (the average value): 0.78
[3]; [8]
  The propionic acid concentration/The acetic acid concentration (the average value): 0.83
[3]; [9]
  The propionic acid concentration/The acetic acid concentration (the average value): 0.96
[3]; [10]
  The propionic acid concentration/The acetic acid concentration (the average value): 0.86
[3]
  ratio between propionic acid/acetic acid in the gastric juice in the rumen: increases
Eimeria tenellum; 50 ppm in feed
  Relation rate of the increase in the body weight: 104%
  OPG: 0.01 x 10^4
  Death rate: 0%
Eimeria tenellum; 100 ppm in feed
  Relation rate of the increase in the body weight: 103%
  OPG: 0 x 10^4
  Death rate: 0%
Eimeria tenellum
  preventive and treating activity against coccidiosis: have a preventive and treating activity against coccidiosis
Acute toxicity test; ip
  LD50: 50 mg/kg
Acute toxicity test; po
  LD50: ≥ 50 mg/kg
[4]; 10 ppm in concentrated feed
  The average ingested amount of concentrated feed during the test period: 2413 kg
  The rate of concentrated feed requirement: 8.904
  The average increase in the body weight during the test period: 271 kg
  The improved ratio of the rate of concentrated feed requirement: 10.2%
[4]; 20 ppm in concentrated feed
  The average ingested amount of concentrated feed during the test period: 2365 kg
  The rate of concentrated feed requirement: 8.446
  The average increase in the body weight during the test period: 280 kg
  The improved ratio of the rate of concentrated feed requirement: 14.8%
